Assay results: patent publication US20260250290A1 (BRISTOL-MYERS SQUIBB COMPANY, priority 2023, published 2026)
Where a name gives a salt, the structure may show the parent alone.

Target: T1, full length SGK1 (Homo sapiens, UniProt O00141)
T1 construct: 125 μM full length SGK1 (Life Technologies Part #PR7358A); purchased Life Technologies PR7358A
T1 sequence (O00141 1-431): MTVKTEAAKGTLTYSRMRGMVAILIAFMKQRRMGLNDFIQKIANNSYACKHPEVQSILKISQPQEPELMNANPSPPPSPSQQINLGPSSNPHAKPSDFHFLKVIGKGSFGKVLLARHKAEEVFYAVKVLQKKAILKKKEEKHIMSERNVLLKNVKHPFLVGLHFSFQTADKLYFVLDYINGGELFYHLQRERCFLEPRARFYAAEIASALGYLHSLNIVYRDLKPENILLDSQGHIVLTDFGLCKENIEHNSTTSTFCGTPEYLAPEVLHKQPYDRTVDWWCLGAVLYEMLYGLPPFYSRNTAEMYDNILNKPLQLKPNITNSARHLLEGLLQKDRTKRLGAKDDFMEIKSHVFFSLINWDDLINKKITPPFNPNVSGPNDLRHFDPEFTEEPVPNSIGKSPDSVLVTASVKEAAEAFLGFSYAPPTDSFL
Test: SGK1 inhibition Assay A (Caliper LabChip electrophoretic separation of fluorescent peptide substrate and phosphorylated product)
Type: biochemical
Conditions: Assay A; 20 μM ATP, 40 min incubation; read-out: SGK1 IC50

Compound | IC50
CC(=O)N1CC=C(c2cc(N3CCC[C@@H](NC(=O)c4cccc(N5CCNCC5)n4)C3)c3c(N)ncnn23)C1 [Example 813, (R)—N-(1-(7-(1-acetyl-2,5-dihydro-1H-pyrrol-3-yl)-4-aminopyrrolo[2,1-f][1,2,4]triazin-5-yl)piperidin-3-yl)-6-(piperazin-1-yl)picolinamide] | 32 nM
CN(C)CCOc1cc(Cl)sc1C(=O)N[C@@H]1CCCN(c2cc(C3=CCN(C(=O)CC(F)(F)F)CC3)n3ncnc(N)c23)C1 [Example 181, (R)-N-(1-(4-amino-7-(1-(3,3,3-trifluoropropanoyl)-1,2,3,6-tetrahydropyridin-4-yl)pyrrolo[2,1-f][1,2,4]triazin-5-yl)piperidin-3-yl)-5-chloro-3-(2-(dimethylamino)ethoxy) thiophene-2-carboxamide, 2 TFA] | 17 nM
CC(=O)N1CC=C(c2cc(N3CCC[C@@H](NC(=O)c4ccncc4)C3)c3c(N)ncnn23)C1 [Example 730, (R)-N-(1-(7-(1-acetyl-2,5-dihydro-1H-pyrrol-3-yl)-4-aminopyrrolo[2,1-f][1,2,4]triazin-5-yl)piperidin-3-yl)isonicotinamide] | 26 nM
(R)-N-(1-(7-(1-acetyl-2,5-dihydro-1H-pyrrol-3-yl)-4-aminopyrrolo[2,1-f][1,2,4]triazin-5-yl)piperidin-3-yl)-5-chloro-3-(piperidin-4-yloxy)thiophene-2-carboxamide [Example 575] | 1 nM
Cc1nc(OC2CCN(C)CC2)c(C(=O)N[C@@H]2CCCN(c3cc(-c4ccc(C#N)nc4)n4ncnc(N)c34)C2)s1 [Example 362, (R)-N-(1-(4-amino-7-(6-cyanopyridin-3-yl)pyrrolo[2,1-f][1,2,4]triazin-5-yl)piperidin-3-yl)-2-methyl-4-((1-methylpiperidin-4-yl)oxy)thiazole-5-carboxamide] | 19 nM
CC(=O)N1CC=C(c2cc(N3CCC[C@@H](NC(=O)c4ccc5n(c4=O)CCC5)C3)c3c(N)ncnn23)C1 [Example 746, (R)-N-(1-(7-(1-acetyl-2,5-dihydro-1H-pyrrol-3-yl)-4-aminopyrrolo[2,1-f][1,2,4]triazin-5-yl)piperidin-3-yl)-5-oxo-1,2,3,5-tetrahydroindolizine-6-carboxamide] | 784 nM
COC(=O)N1CC=C(c2cc(N3CCC[C@@H](NC(=O)c4cc5cc(C#N)ccc5[nH]4)C3)c3c(N)ncnn23)C1 [Example 498, Methyl (R)-3-(4-amino-5-(3-(5-cyano-1H-indole-2-carboxamido)piperidin-1-yl)pyrrolo[2,1-f][1,2,4]triazin-7-yl)-2,5-dihydro-1H-pyrrole-1-carboxylate] | 41 nM
Nc1ncnn2c(-c3ccc(Cl)cc3)cc(N3CCC[C@@H](NC(=O)c4ccc(Cl)s4)C3)c12 [Example 235] | 37 nM
CS(=O)(=O)c1ccc(-c2cc(N3CCC[C@@H](NS(=O)(=O)c4ccccc4)C3)c3c(N)ncnn23)cc1 [Example 274, (R)—N-(1-(4-amino-7-(4-(methylsulfonyl)phenyl)pyrrolo[2,1-f][1,2,4]triazin-5-yl)piperidin-3-yl)benzenesulfonamide] | 916 nM
COc1ccc(-n2cc(OCCN(C)C)c(C(=O)N[C@@H]3CCCN(c4cc(-c5ccc(C#N)nc5)n5ncnc(N)c45)C3)n2)cc1 [Example 392] | 151 nM
CS(=O)(=O)c1ccc(-c2cc(N3CCC[C@@H](C(=O)Nc4nccs4)C3)c3c(N)ncnn23)cc1 [Example 104, (R)-1-(4-amino-7-(4-(methylsulfonyl)phenyl)pyrrolo[2,1-f][1,2,4]triazin-5-yl)-N-(thiazol-2-yl)piperidine-3-carboxamide] | 247 nM
Nc1ncnn2c(-c3ccc(=O)n(CC(F)F)c3)cc(N3CCC[C@@H](NC(=O)c4sc(C(F)F)cc4N4CC5(COC5)C4)C3)c12 [Example 316, (R)-N-(1-(4-amino-7-(1-(2,2-difluoroethyl)-6-oxo-1,6-dihydropyridin-3-yl)pyrrolo[2,1-f][1,2,4]triazin-5-yl)piperidin-3-yl)-5-(difluoromethyl)-3-(2-oxa-6-azaspiro[3.3]heptan-6-yl)thiophene-2-carboxamide] | 31 nM
CC(C)c1cc(C(=O)N[C@@H]2CCCN(c3cc(C4=CCN(S(C)(=O)=O)C4)n4ncnc(N)c34)C2)on1 [Example 119, (R)—N-(1-(4-amino-7-(1-(methylsulfonyl)-2,5-dihydro-1H-pyrrol-3-yl)pyrrolo[2,1-f][1,2,4]triazin-5-yl)piperidin-3-yl)-3-isopropylisoxazole-5-carboxamide, TFA] | 18 nM
COC(=O)N1CC=C(c2cc(N3CCC[C@@H](NC(=O)c4cc5cc(F)ccc5[nH]4)C3)c3c(N)ncnn23)C1 [Example 518, Methyl (R)-3-(4-amino-5-(3-(5-fluoro-1H-indole-2-carboxamido)piperidin-1-yl)pyrrolo[2,1-f][1,2,4]triazin-7-yl)-2,5-dihydro-1H-pyrrole-1-carboxylate] | 138 nM
N#Cc1ccc(-c2cc(N3CCC[C@@H](NC(=O)c4nc5ccccc5s4)C3)c3c(N)ncnn23)cn1 [Example 647, (R)-N-(1-(4-amino-7-(6-cyanopyridin-3-yl)pyrrolo[2,1-f][1,2,4]triazin-5-yl)piperidin-3-yl)benzo[d]thiazole-2-carboxamide] | 63 nM
CN1CCN(c2cccc(C(=O)N[C@@H]3CCCN(c4cc(-c5cncnc5)n5ncnc(N)c45)C3)n2)CC1 [Example 787, (R)-N-(1-(4-amino-7-(pyrimidin-5-yl)pyrrolo[2,1-f][1,2,4]triazin-5-yl)piperidin-3-yl)-6-(4-methylpiperazin-1-yl)picolinamide] | 77 nM

The next lines start with the values.

IC50 | Compound
8 nM | Nc1ncnn2c(C3=CCN(C(=O)C4CCCCO4)C3)cc(N3CCC[C@@H](NC(=O)c4ccc(Cl)s4)C3)c12 (stereo partly drawn) [Example 897, N-((3R)-1-(4-amino-7-(1-(tetrahydro-2H-pyran-2-carbony1)-2,5-dihydro-1H-pyrrol-3-y1)pyrrolo[2,1-f][1,2,4]triazin-5-yl)piperidin-3-y1)-5-chlorothiophene-2-carboxamide]
14 nM | CC(=O)N1CC=C(c2cc(N3CCC[C@@H](NC(=O)c4sc(Cl)cc4OCCN4CCNCC4)C3)c3c(N)ncnn23)C1 [Example 298, (R)-N-(1-(7-(1-acetyl-2,5-dihydro-1H-pyrrol-3-yl)-4-aminopyrrolo[2,1-f][1,2,4]triazin-5-yl)piperidin-3-yl)-5-chloro-3-(2-(piperazin-1-yl)ethoxy)thiophene-2-carboxamide]
13 nM | CS(=O)(=O)c1ccc(-c2cc(N3CCC[C@@H](NC(=O)c4cc(Cl)ns4)C3)c3c(N)ncnn23)cc1 [Example 72, (R)-N-(1-(4-amino-7-(4-(methylsulfonyl)phenyl)pyrrolo[2,1-f][1,2,4]triazin-5-yl)piperidin-3-yl)-3-chloroisothiazole-5-carboxamide, TFA]
11 nM | Cc1cc(-c2cc(N3CCC[C@@H](NC(=O)c4sc(Cl)cc4OCC(=O)N4CCCC4)C3)c3c(N)ncnn23)cnc1C#N [Example 421, (R)-N-(1-(4-amino-7-(6-cyano-5-methylpyridin-3-yl)pyrrolo[2,1-f][1,2,4]triazin-5-yl)piperidin-3-yl)-5-chloro-3-(2-oxo-2-(pyrrolidin-1-yl)ethoxy) thiophene-2-carboxamide]
4 nM | CC(=O)N1CC=C(c2cc(N3CCCC(NC(=O)c4sc(Cl)cc4OC4CCNC(C)C4)C3)c3c(N)ncnn23)C1 (single isomer, unassigned) [Example 623]
11 nM | CN(C)CCOc1c(C(=O)N[C@@H]2CCCN(c3cc(-c4ccc(C#N)nc4)n4ncnc(N)c34)C2)sc2ccncc12 [Example 666, (R)—N-(1-(4-amino-7-(6-cyanopyridin-3-yl)pyrrolo[2,1-f][1,2,4]triazin-5-yl)piperidin-3-yl)-3-(2-(dimethylamino)ethoxy)thieno[3,2-c]pyridine-2-carboxamide]
12 nM | Nc1ncnn2c(-c3cc(F)nc(F)c3)cc(N3CCC[C@@H](NC(=O)c4ccc(Cl)s4)C3)c12 [Example 231]
12 nM | COC(=O)N1CC=C(c2cc(N3CCC[C@@H](NC(=O)c4sc(Cl)cc4OC4CCN(CC(F)F)CC4)C3)c3c(N)ncnn23)C1 [Example 566, methyl (R)-3-(4-amino-5-(3-(5-chloro-3-((1-(2,2-difluoroethyl)piperidin-4-yl)oxy)thiophene-2-carboxamido)piperidin-1-yl)pyrrolo[2,1-f][1,2,4]triazin-7-yl)-2,5-dihydro-1H-pyrrole-1-carboxylate]
7 nM | CCOc1ccsc1C(=O)N[C@@H]1CCCN(c2cc(-c3ccc(S(C)(=O)=O)cc3)n3ncnc(N)c23)C1 [Example 99, (R)-N-(1-(4-amino-7-(4-(methylsulfonyl)phenyl)pyrrolo[2,1-f][1,2,4]triazin-5-yl)piperidin-3-yl)-3-ethoxythiophene-2-carboxamide]
15 nM | NCCOc1cc(C(F)F)sc1C(=O)N[C@@H]1CCCN(c2cc(-c3cncnc3)n3ncnc(N)c23)C1 [Example 325, (R)-N-(1-(4-amino-7-(pyrimidin-5-yl)pyrrolo[2,1-f][1,2,4]triazin-5-yl)piperidin-3-yl)-3-(2-aminoethoxy)-5-(difluoromethyl)thiophene-2-carboxamide]
4 nM | CC(=O)N1CC=C(c2cc(N3CCC[C@@H](NC(=O)c4cccc(C)n4)C3)c3c(N)ncnn23)C1 [Example 448, (R)-N-(1-(7-(1-acetyl-2,5-dihydro-1H-pyrrol-3-yl)-4-aminopyrrolo[2,1-][1,2,4]triazin-5-yl)piperidin-3-yl)-6-methylpicolinamide]
